In patent US9617242B2, “Histone demethylase inhibitors” (priority 2012, dated 2017):
Structures can show the parent of a compound that is named as a salt. Where two headings read alike, the source gives them in different places.

Legend:
[1] = target: Jarid1A (Homo sapiens (Human), UniProt P29375); assay: Jarid1A in vitro enzyme inhibition assay (TR-FRET); format: biochemical
[2] = system: KDM5A/B; assay: In vitro cell-based assay: tri-methyl H3K4 immuno-blotting in ZR-75-1 breast cancer cells
Method: This quantitative immuno-blotting assay measures the amount tri-methylated histone H3 at amino acid Lysine number 4, a specific substrate […] of the direct enzymatic activity of the histone demethylases KDM5A and KDM5B from extracts of the ZR-75-1 breast cancer cell line.
This assay is a fluorometric immunoassay for the quantification of tri-methyl H3K4 extracted from cells treated with test compound and is used as a measure of the cellular inhibition of KDM5A/B.
Extracts were prepared containing all of the cellular histone material using detergent based lysis and sonication methods. These lysates were subsequently normalized for total protein content using a colorimetric bicinchonic acid assay (MicroBCA Pierce/Thermo Scientific). Normalized cell extracts were then subjected to typical immuno-blotting procedures using NuPage reagents (Life Technologies). Electrophoretically separated histones were then transferred and immobilized using polyvinylidene difluoride membrane (Immobilon-FL Millipore). The amount of tri-methylated lysine 4 of histone H3 was detected using an antibody specific to the tri-methylated state (Cell Signaling Technologies) and quantified on an infrared imager using a densitometry software package (Odyssey CLx, Image Studio, Li-Cor). This background subtracted densitometry value was reported as a ration of the GAPDH amount for that sample and then calculated as a percent of the DMSO treated sample. The software package XL-fit (IDBS) was then used to calculate a relative IC50 value for the dilution series of a given test compound according to the equation: fit=(D+((Vmax*(x^n))/((x^n)+(Km^n)))).

[3] = target: Jarid1B (Homo sapiens (Human), UniProt Q9UGL1); assay: Jarid1B in vitro enzyme inhibition assay (TR-FRET); format: biochemical
Jarid1B, sequence (Q9UGL1 2-751): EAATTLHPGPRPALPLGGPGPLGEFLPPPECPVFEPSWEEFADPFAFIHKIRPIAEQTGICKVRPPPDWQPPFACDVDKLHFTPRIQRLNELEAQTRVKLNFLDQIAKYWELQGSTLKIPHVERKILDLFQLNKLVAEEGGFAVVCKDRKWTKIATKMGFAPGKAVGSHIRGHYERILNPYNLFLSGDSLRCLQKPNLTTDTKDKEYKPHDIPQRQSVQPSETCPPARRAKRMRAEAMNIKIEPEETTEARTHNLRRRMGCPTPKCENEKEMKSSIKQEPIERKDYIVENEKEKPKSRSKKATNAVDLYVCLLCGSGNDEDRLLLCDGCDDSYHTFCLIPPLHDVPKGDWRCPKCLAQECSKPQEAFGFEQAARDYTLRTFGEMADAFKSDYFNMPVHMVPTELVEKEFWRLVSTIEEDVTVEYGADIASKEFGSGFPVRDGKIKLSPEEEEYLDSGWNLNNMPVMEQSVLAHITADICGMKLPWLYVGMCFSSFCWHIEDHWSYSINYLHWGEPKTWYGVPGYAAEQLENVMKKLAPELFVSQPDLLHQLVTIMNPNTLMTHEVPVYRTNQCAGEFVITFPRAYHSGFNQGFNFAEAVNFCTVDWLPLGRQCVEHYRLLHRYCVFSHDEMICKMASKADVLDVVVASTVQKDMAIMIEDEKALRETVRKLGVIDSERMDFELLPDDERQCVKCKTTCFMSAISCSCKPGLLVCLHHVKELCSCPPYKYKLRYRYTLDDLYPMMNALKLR

[4] = 72 hours, read-out: Cellular IC50
[5] = read-out: Cellular IC50, 72 hours

Jarid1A, sequence (P29375 1-1090): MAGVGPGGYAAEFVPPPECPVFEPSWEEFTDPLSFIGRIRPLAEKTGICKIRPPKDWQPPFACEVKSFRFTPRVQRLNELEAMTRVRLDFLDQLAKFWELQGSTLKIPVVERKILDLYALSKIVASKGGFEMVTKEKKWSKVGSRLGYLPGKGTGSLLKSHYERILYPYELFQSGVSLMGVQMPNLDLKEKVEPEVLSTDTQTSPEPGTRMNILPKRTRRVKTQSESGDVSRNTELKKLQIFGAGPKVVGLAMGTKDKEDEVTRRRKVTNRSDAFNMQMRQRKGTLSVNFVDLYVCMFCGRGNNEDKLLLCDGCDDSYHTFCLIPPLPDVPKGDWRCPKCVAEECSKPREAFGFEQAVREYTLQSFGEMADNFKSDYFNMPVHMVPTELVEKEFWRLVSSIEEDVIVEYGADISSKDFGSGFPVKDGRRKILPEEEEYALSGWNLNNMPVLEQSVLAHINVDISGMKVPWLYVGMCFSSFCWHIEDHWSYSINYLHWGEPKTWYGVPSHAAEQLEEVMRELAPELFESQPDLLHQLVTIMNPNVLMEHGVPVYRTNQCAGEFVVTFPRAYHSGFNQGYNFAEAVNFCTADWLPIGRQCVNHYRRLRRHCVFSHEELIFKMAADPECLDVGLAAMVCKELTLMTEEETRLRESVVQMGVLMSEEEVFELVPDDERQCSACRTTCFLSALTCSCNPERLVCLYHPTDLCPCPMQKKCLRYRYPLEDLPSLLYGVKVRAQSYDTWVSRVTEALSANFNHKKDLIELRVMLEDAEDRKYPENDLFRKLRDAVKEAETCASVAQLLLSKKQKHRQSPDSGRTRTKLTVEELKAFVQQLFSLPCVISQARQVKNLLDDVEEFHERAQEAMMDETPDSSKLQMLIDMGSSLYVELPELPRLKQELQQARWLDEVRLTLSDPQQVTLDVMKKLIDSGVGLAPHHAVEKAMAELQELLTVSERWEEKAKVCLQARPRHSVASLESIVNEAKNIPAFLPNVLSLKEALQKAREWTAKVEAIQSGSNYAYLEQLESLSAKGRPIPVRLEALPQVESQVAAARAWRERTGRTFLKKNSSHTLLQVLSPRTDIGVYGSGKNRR

Row | Structure (SMILES) | IC50 [1] | IC50 [2, 4] | IC50 [3] | IC50 [2, 5]
1 | Cn1nc(Nc2cnccc2C(=O)O)c2cc(Cl)ccc21 [Example 4, 3-[(5-chloro-1-methyl-1H-indazol-3-yl)amino]pyridine-4-carboxylic acid] | < 100 nM | 100 to 1000 nM | < 100 nM | 
2 | Cc1ccc2c(Nc3cnccc3C(=O)O)nn(C)c2c1 [Example 5, 3-[(1,6-dimethyl-1H-indazol-3-yl)amino]pyridine-4-carboxylic acid] | < 100 nM | 1000 to 10000 nM | < 100 nM | 
3 | Cn1nc(Nc2cnccc2C(=O)O)c2ccc(F)cc21 [Example 6, 3-[(6-fluoro-1-methyl-1H-indazol-3-yl)amino]pyridine-4-carboxylic acid] |  | 1000 to 10000 nM |  | 
4 | COc1ccc2c(Nc3cnccc3C(=O)O)nn(C)c2c1 [Example 8, 3-[(6-methoxy-1-methyl-1H-indazol-3-yl)amino]pyridine-4-carboxylic acid] | < 100 nM | 1000 to 10000 nM | < 100 nM | 
5 | CCCn1nc(Nc2cnccc2C(=O)O)c2ccccc21 [Example 9, 3-[(1-propyl-1H-indazol-3-yl)amino]pyridine-4-carboxylic acid] | < 100 nM | 100 to 1000 nM | < 100 nM | 
6 | COCCn1nc(Nc2cnccc2C(=O)O)c2ccccc21 [Example 10, 3-{[1-(2-methoxyethyl)-1H-indazol-3-yl]amino}pyridine-4-carboxylic acid] | < 100 nM | 1000 to 10000 nM | < 100 nM | 
7 | Cc1ccc2c(c1)c(Nc1cnccc1C(=O)O)nn2C [Example 12, 3-[(1,5-dimethyl-1H-indazol-3-yl)amino]pyridine-4-carboxylic acid] |  | 100 to 1000 nM |  | 
8 | CCCn1nc(Nc2cnccc2C(=O)O)c2cc(F)ccc21 [Example 15, 3-[(5-fluoro-1-propyl-1H-indazol-3-yl)amino]pyridine-4-carboxylic acid] | < 100 nM | 1000 to 10000 nM | < 100 nM | 
9 | O=C(O)c1ccncc1Nc1nn(CC2CC2)c2ccc(F)cc12 [Example 16, 3-{[1-(cyclopropylmethyl)-5-fluoro-1H-indazol-3-yl]amino}pyridine-4-carboxylic acid] | < 100 nM | 1000 to 10000 nM | < 100 nM | 
10 | CCCCCn1nc(Nc2cnccc2C(=O)O)c2cc(F)ccc21 [Example 18, 3-[(5-fluoro-1-pentyl-1H-indazol-3-yl)amino]pyridine-4-carboxylic acid] | < 100 nM | 1000 to 10000 nM | < 100 nM | 
11 | O=C(O)c1ccncc1Nc1nn(CCc2ccccc2)c2ccc(F)cc12 [Example 19, 3-{[5-fluoro-1-(2-phenethyl)-1H-indazol-3-yl]amino}pyridine-4-carboxylic acid] | < 100 nM | > 10000 nM | < 100 nM | 
12 | O=C(O)c1ccncc1Nc1nn(CC2CCCO2)c2ccc(F)cc12 (centres unmarked) [Example 21, 3-{[5-fluoro-1-(tetrahydrofuran-2-ylmethyl)-1H-indazol-3-yl]amino}pyridine-4-carboxylic acid] | < 100 nM | 1000 to 10000 nM | < 100 nM | 
13 | O=C(O)c1ccncc1Nc1nn(CC(F)(F)F)c2ccc(F)cc12 [Example 23, 3-{[5-fluoro-1-(2,2,2-trifluoroethyl)-1H-indazol-3-yl]amino}pyridine-4-carboxylic acid] | < 100 nM | 1000 to 10000 nM | < 100 nM | 
14 | CC(C)Cn1nc(Nc2cnccc2C(=O)O)c2cc(F)ccc21 [Example 25, 3-{[5-fluoro-1-(2-methylpropyl)-1H-indazol-3-yl]amino}pyridine-4-carboxylic acid] | < 100 nM | 1000 to 10000 nM | < 100 nM | 
15 | CCC(C)n1nc(Nc2cnccc2C(=O)O)c2cc(F)ccc21 (centres unmarked) [Example 26, 3-{[5-fluoro-1-(butan-2-yl)-1H-indazol-3-yl]amino}pyridine-4-carboxylic acid] | < 100 nM | 1000 to 10000 nM | < 100 nM | 
16 | O=C(O)c1ccncc1Nc1nn(CC2CCC2)c2ccc(F)cc12 [Example 28, 3-{[1-(cyclobutylmethyl)-5-fluoro-1H-indazol-3-yl]amino}pyridine-4-carboxylic acid] | < 100 nM | 100 to 1000 nM | < 100 nM | 
17 | O=C(O)c1ccncc1Nc1nn(C2CCCC2)c2ccc(F)cc12 [Example 29, 3-[(1-cyclopentyl-5-fluoro-1H-indazol-3-yl)amino]pyridine-4-carboxylic acid] | < 100 nM | 100 to 1000 nM | < 100 nM | 
18 | O=C(O)c1ccncc1Nc1nn(CC2CCCC2)c2ccc(F)cc12 [Example 30, 3-{[1-(cyclopentylmethyl)-5-fluoro-1H-indazol-3-yl]amino}pyridine-4-carboxylic acid] | < 100 nM | 1000 to 10000 nM | < 100 nM | 

Row | Structure (SMILES) | IC50 [1] | IC50 [2, 4] | IC50 [3] | IC50 [2, 5]
19 | CCn1nc(Nc2cnccc2C(=O)O)c2cc(C)ccc21 [Example 36, 3-[(1-ethyl-5-methyl-1H-indazol-3-yl)amino]pyridine-4-carboxylic acid] | < 100 nM |  | < 100 nM | 
20 | CCCn1nc(Nc2cnccc2C(=O)O)c2cc(C)ccc21 [Example 38, 3-[(5-methyl-1-propyl-1H-indazol-3-yl)amino]pyridine-4-carboxylic acid] | < 100 nM |  | < 100 nM | 
21 | Cc1ccc2c(c1)c(Nc1cnccc1C(=O)O)nn2CCC(F)(F)F [Example 39, 3-{[5-methyl-1-(3,3,3-trifluoropropyl)-1H-indazol-3-yl]amino}pyridine-4-carboxylic acid] | < 100 nM |  | < 100 nM | 
22 | CNCCCCCn1nc(Nc2cnccc2C(=O)O)c2cc(F)ccc21 [Example 46, 3-({5-fluoro-1-[5-(methylamino)pentyl]-1H-indazol-3-yl}amino)pyridine-4-carboxylic acid, trifluoroacetic acid salt] |  |  |  | > 10000 nM
23 | CN(C)CC#CCn1nc(Nc2cnccc2C(=O)O)c2cc(F)ccc21 [Example 49, 3-({1-[4-(dimethylamino)but-2-yn-1-yl]-5-fluoro-1H-indazol-3-yl}amino)pyridine-4-carboxylic acid, trifluoroacetic acid salt] |  |  |  | > 10000 nM
24 | CCCn1cc(Nc2cnccc2C(=O)O)c2cc(F)ccc21 [Example 57, 3-[(5-fluoro-1-propyl-1H-indol-3-yl)amino]pyridine-4-carboxylic acid] | < 100 nM |  | < 100 nM | 
25 | O=C(O)c1ccncc1Nc1nn([C@H]2CCNC2)c2ccc(F)cc12 [Example 60, 3-({5-fluoro-1-[(3S)-pyrrolidin-3-yl]-1H-indazol-3-yl}amino)pyridine-4-carboxylic acid] |  | 1000 to 10000 nM |  | 
26 | O=C(O)c1ccncc1Nc1nn([C@@H]2CCNC2)c2ccc(F)cc12 [Example 61, 3-({5-fluoro-1-[(3R)-pyrrolidin-3-yl]-1H-indazol-3-yl}amino)pyridine-4-carboxylic] |  | 1000 to 10000 nM |  | 
27 | O=C(O)c1ccncc1Nc1nn(C2CCOCC2)c2ccc(F)cc12 [Example 62, 3-{[5-fluoro-1-(tetrahydro-2H-pyran-4-yl)-1H-indazol-3-yl]amino}pyridine-4-carboxylic acid] | < 100 nM |  | < 100 nM | 
28 | O=C(O)c1ccncc1Nc1nn(C2CCCOC2)c2ccc(F)cc12 (centres unmarked) [Example 63, 3-{[5-fluoro-1-(tetrahydro-2H-pyran-3-yl)-1H-indazol-3-yl]amino}pyridine-4-carboxylic acid] | < 100 nM |  | < 100 nM | 
29 | O=C(O)c1ccncc1Nc1cn(C2CCOC2)c2ccc(F)cc12 (centres unmarked) [Example 68, 3-{[5-fluoro-1-(tetrahydrofuran-3-yl)-1H-indol-3-yl]amino}pyridine-4-carboxylic acid] | < 100 nM |  | < 100 nM | 
30 | N#CNC(=O)c1ccncc1Nc1nn([C@H]2CCOC2)c2ccc(F)cc12 [Example 70, N-cyano-3-({5-fluoro-1-[(3S)-tetrahydrofuran-3-yl]-1H-indazol-3-yl}amino)pyridine-4-carboxamide] | < 100 nM |  | < 100 nM | 
31 | N#CNC(=O)c1ccncc1Nc1nn(CCN2CCC(F)(F)C2)c2ccc(F)cc12 [Example 72, N-cyano-3-({1-[2-(3,3-difluoropyrrolidin-1yl)ethyl]-5-fluoro-1H-indazol-3-yl}amino)pyridine-4-carboxamide] | < 100 nM |  | < 100 nM | 
32 | N#CNC(=O)c1ccncc1Nc1nn(CCN2CCC(F)(F)CC2)c2ccc(F)cc12 [Example 74, N-cyano-3-({1-[2-(4,4-difluoropiperidin-1yl)ethyl]-5-fluoro-1H-indazol-3-yl}amino)pyridine-4-carboxamide] | < 100 nM |  | < 100 nM | 
33 | CC(C)Cn1nc(Nc2cnccc2C(=O)NC#N)c2cc(F)ccc21 [Example 75, N-cyano-3-{[5-fluoro-1-(2-methylpropyl)-1H-indazol-3-yl]amino}pyridine-4-carboxamide] | < 100 nM |  | < 100 nM | 
34 | CN(C)CCCCn1nc(Nc2cnccc2C(=O)NC#N)c2cc(F)ccc21 [Example 76, N-cyano-3-({1-[4-(dimethylamino)butyl]-5-fluoro-1H-indazol-3-yl}amino)pyridine-4-carboxamide] | < 100 nM |  | < 100 nM | 
35 | N#CNC(=O)c1ccncc1Nc1nn(CCN2CCCC2)c2ccc(Cl)cc12 [Example 79, N-cyano-3-({5-chloro-1-[2-(pyrrolidin-1-yl)ethyl]-1H-indazol-3-yl}amino)pyridine-4-carboxamide] | < 100 nM |  | < 100 nM | 
